This assay has as its system human UCB-MSCs. Description: RNA-seq gene expression. Type of assay: cell-based. The conditions noted are these: UCB-MSCs treated with YJ102 30 μM for 3 days. How it is done: The expression gene profile of ciNSC5, which was transdifferentiated from human UCB-MSCs by treating YJ102 for 5 days, was analyzed using genome-wide RNA-seq. Specifically, 1×10^5 human UCB-MSCs were dispensed in a 60 mm culture dish (a control group dispensed at 1.67×10^4), the cells were treated with YJ102 dissolved at 30 mM in DMSO at a concentration of 30 μM (the control group treated with DMSO), and incubated at 37° C. for 2, 3, or 5 days. Thereafter, the culture medium was removed, washed with PBS, and the cells were collected with a scraper and transferred to a microcentrifuge tube. PBS was removed by centrifugation, and the cells were added with 500 μl of a Tri-RNA Reagent and mixed well by pipetting. The mixture was added with 100 μl of chloroform, the tube was mixed by vortexing for 15 seconds, and then centrifuged at 4° C. at 14,000 rpm for 20 minutes. Thereafter, the upper aqueous phase was transferred to a new microcentrifuge tube using a pipette, and added and mixed with 550 μl of isopropanol. The mixture was centrifuged at 14,000 rpm at 4° C. for 20 minutes, the supernatant was discarded, and the pellet was washed with 1 ml of 70% ethanol. […] The pellet was resuspended in 100 μl RNase-free DIW, centrifuged at 14,000 rpm for 10 minutes at 4° C. to remove the supernatant, air-dried, and then the RNA concentration was quantified using nanodrop. […]

Regarding `CCc1ccc(N(C(=O)COC)c2nc3cc(Cl)ccc3o2)cc1` [YJ102], the “expression of cell division-related genes (RNA-seq)” value was “decreased” and the “expression of nervous system-related genes (RNA-seq)” value is recorded as “increased”.

(Values after patent US20250027041A1, “COMPOSITION FOR INDUCING TRANSDIFFERENTIATION AND STEM CELLS TREATED THEREWITH” (YJ CERAPEUTICS INC., priority 2021, published 2025).)
